From patent US11202743B2, “Personal care compositions comprising fatty acid amide derivatives” (Conopco, Inc., priority 2016, dated 2021)

Legend:
human CB2 receptor = human CB2 receptor (Homo sapiens (Human), UniProt P34972); assay: CB2 receptor binding assay, displacement of 3H CP-55,940 from membrane preparation; settings: inhibition of 3H CP-55,940 binding (1 nM), human CB2 membranes
Experimental: (§1) The ability of the compounds according to some embodiments of the present invention to inhibit a radiolabeled cannabinoid ligand, CP-55,940, [Side chain-2,3,4(N)-3H(N)]-(Perkin-Elmer Cat. # NET1051) to either the human CB1 receptor or CB2 receptor was determined according to the manufacturer's instructions in the commercially available membrane preparations from Perkin Elmer (Cat Nos. RBHCB1M400UA and RBXCB2M400UA). Briefly, pre-treatment of the glass fiber membrane of a Matrix 96 well GFC filtration microtiter plate was done in order to help reduce non-specific binding of the radioligand to the GFC membrane. This was done by adding 150 μl of 0.5% polyethylimine (PEI) to each well and letting this remain in the plate for at least 4 hours before using it to terminate the binding reaction. The actual binding reaction was performed in a polypropylene (PP) round bottom 96-well microtiter plate. Briefly, 55 μl of assay buffer (50 mM TRIS pH7.4, 2.5 mM EGTA, 5 mM MgCl2, 120 mM NaCl, 0.1% Fatty acid free BSA) was added to each well, followed by 20 μl of a 0.4 mg/ml CB1 or CB2 membrane suspension (8 μg membrane per well). To initiate the reaction, 20 μl of 5 nM ^3H CP-55,940 (1 nM final concentration) was added to each well. Nonspecific binding was defined in the presence of 20 μM unlabeled WIN 55212 (Sigma cat. W-102). ACEA was routinely used as a positive control for both assays. The plate was shaken on an orbital plate shaker and the binding reaction proceeded until equilibrium was reached after 3 hours at room temperature. Using a Multiscreen vacuum manifold, the PEI was filtered through the GFC filter plate. The binding reaction in the PP plate was mixed by aspirating the reaction contents of each well and dispensing back into the plate. This was repeated 4 times and then 75 μl of the reaction mixture was transferred to the GFC plate. This procedure could be done row by row with the use of a multichannel pipette, or all at once if using automation. Once the entire content of the PP plate was transferred to the GFC plate, the binding reactions were terminated by filtering thru the GFC plate. The filter plate was then washed by adding 100 μl ice-cold wash buffer 50 mM TRIS pH 7.4, 2.5 mM EGTA, 5 mM MgCl2, 120 mM NaCl, 2% Fatty acid free BSA) to each well and filtering through. This was repeated 8 times, after which the filter mat was allowed to dry. Once the filter mat was dry, 50 μl of Microscint scintillation cocktail was added to each well, allowed to sit for 15-20 min, and the plate read on a Microbeta2 scintillation counter.
(§2) The lower the IC50 value, the higher the binding.

[1] = biological target: recombinant human FAAH enzyme (Homo sapiens (Human), UniProt O00519); assay: FAAH inhibition assay (Cayman Chemicals kit, AMC-arachidonoyl amide hydrolysis, fluorescence); assay type: biochemical
Experimental: The ability of the compounds according to some embodiments of the present invention to inhibit FAAH was determined according to the methods disclosed a commercially available kit from Cayman Chemicals (Cayman Cat. No. 10005196). The kit utilizes recombinant human FAAH enzyme which hydrolyzes AMC-arachidonoyl amide resulting in the release of the fluorescent product, 7-amino-4-methylcoumarin (AMC). The fluorophore was detected via fluorescence, using an excitation wavelength of 340-360 nm and an emission wavelength of 450-465 nm. The assay was followed as described in the kit manual, which can be found on the webpage of Cayman Chemicals.

human CB1 receptor = human CB1 receptor (Homo sapiens (Human), UniProt P21554); assay: CB1 receptor binding assay, displacement of 3H CP-55,940 from membrane preparation; settings: inhibition of 3H CP-55,940 binding (1 nM), human CB1 membranes
Experimental: as §1, §2

[2] = Effect on solubility of 12 HSA (visual observation); assay type: physicochemical
[3] = test system: serotonin-induced scratches (itch); settings: mice; cited from earlier work
[4] = 48.28% Tween 20, 34.48% 12-HSA, 17.24% compound
[5] = 41.18% Tween 20, 29.41% 12-HSA, 29.41% compound
[6] = 41.18% Tween 60, 29.41% 12-HSA, 29.41% compound
[7] = 41.67% Tween 60, 41.67% 12-HSA, 16.67% compound

Chain of human CB2 receptor (P34972 whole entry): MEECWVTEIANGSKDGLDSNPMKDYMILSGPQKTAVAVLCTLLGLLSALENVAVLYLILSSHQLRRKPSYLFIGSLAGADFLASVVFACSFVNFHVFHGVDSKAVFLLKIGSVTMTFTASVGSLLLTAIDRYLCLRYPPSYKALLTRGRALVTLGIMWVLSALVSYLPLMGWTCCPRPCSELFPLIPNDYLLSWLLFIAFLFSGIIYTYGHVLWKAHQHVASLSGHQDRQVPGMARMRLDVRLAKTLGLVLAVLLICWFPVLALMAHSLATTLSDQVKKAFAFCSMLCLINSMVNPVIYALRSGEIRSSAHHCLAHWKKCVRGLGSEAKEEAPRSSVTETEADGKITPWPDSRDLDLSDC
Chain of recombinant human FAAH enzyme (O00519 whole entry): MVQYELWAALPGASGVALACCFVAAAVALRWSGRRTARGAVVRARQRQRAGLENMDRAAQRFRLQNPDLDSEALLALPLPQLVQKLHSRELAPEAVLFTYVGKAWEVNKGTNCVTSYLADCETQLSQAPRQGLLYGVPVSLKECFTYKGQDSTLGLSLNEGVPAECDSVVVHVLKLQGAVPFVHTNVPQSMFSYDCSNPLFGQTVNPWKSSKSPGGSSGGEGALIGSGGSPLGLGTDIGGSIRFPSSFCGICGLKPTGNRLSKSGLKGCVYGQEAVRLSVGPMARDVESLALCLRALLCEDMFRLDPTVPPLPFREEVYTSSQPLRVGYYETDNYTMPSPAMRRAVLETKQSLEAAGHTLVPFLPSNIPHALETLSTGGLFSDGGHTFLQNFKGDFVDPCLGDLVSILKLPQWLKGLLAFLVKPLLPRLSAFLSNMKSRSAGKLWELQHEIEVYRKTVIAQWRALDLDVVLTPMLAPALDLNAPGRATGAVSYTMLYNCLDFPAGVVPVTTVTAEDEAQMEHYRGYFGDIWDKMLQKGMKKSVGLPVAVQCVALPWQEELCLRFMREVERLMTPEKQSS
Chain of human CB1 receptor (P21554 whole entry): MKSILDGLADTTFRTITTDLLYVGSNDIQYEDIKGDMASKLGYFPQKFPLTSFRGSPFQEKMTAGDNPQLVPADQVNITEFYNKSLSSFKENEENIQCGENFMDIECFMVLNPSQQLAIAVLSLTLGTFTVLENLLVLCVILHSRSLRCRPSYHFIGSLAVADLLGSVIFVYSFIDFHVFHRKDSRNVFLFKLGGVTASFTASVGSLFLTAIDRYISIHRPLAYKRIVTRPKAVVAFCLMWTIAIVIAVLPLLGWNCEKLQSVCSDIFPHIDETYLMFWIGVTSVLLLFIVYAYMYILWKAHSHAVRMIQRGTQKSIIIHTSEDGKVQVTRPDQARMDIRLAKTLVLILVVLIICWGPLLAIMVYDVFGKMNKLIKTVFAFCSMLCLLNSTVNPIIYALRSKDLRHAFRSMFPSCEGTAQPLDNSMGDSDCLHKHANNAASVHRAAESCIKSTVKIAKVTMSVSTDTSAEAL

Compound | IC50 [1] | CB2 IC50 (human CB2 receptor) | CB1 IC50 (human CB1 receptor) | also measured
CCCCCC/C=C/C=C/CCCCCCCC(=O)NC(CC(=O)O)Cc1c[nH]cn1 (centres unmarked) [Compound 10] | 13 µM | – | – | IC50 (human CB2 receptor): 38 µM
CCCCCCC(O)CCCCCCCCCCC(=O)NC(C)C(=O)O (centres unmarked) [Compound 17] | 40 µM | no binding activities | no binding activities | –
CCCCCCC(O)CCCCCCCCCCC(=O)NC(CCC(=O)O)C(=O)O (centres unmarked) [Compound 19] | – | – | – | Observation ([2]; 50.00% Tween 60, 35.71% 12-HSA, 14.29% compound): translucent
CCCCCC/C=C/C=C/CCCCCCCC(=O)NCCC(=O)O [Compound 3] | 2.8 µM | – | – | IC50 (human CB2 receptor): 26 µM; Observation [2, 4]: translucent; IC50 (human CB1 receptor): 22 µM
CCCCCC/C=C/C=C\CCCCCCCC(=O)NCC(=O)O [Compound 5] | 3.5 µM | No binding | No binding | Observation ([2]; 33.33% Tween 20, 41.67% 12-HSA, […] compound): translucent; Observation ([2]; 40% Tween 20, 30% 12-HSA, 10% compound): translucent; Observation ([2]; 40.00% Tween 20, 40% 12-HSA, 20% compound): translucent; Observation [2, 4]: translucent; Observation ([2]; 48.28% Tween 60, 34.48% 12-HSA, 17.24% compound): translucent
CCCCC/C=C\C=C\CCCCCCCCC(=O)NCC(=O)O [Compound 6] | 3.5 µM | No binding | No binding | –
CCCCCCC(O)C/C=C\CCCCCCCC(=O)NC(C)C(=O)O (centres unmarked) [Compound 12] | 42 µM | no binding activities | no binding activities | Observation [2, 5]: translucent; Observation [2, 6]: translucent
NC(=O)c1cccc(-c2cccc(OC(=O)NC3CCCCC3)c2)c1 [URB597] | – | – | – | Serotonin-induced scratches (itch) [3]: attenuate
CCCCCCC(O)C/C=C\CCCCCCCC(=O)NCC(=O)O (centres unmarked) [Compound 14] | 26 µM | no binding activities | no binding activities | Observation [2, 5]: translucent; Observation [2, 6]: translucent
CCCCC/C=C\C=C\CCCCCCCCC(=O)NC(C)C(=O)O (centres unmarked) [Compound 2] | 2.6 µM | No binding | No binding | –
CCCCCCC(O)CCCCCCCCCCC(=O)NCC(=O)O (centres unmarked) [Compound 18] | 46 µM | no binding activities | no binding activities | Observation ([2]; 48.39% Tween 60, 48.39% 12-HSA, 3.23% compound): translucent
CCCCC/C=C\C=C\CCCCCCCCC(=O)NC(Cc1ccccc1)C(=O)O (centres unmarked) [Compound 8] | 11 µM | No binding | No binding | –
CCCCCCC(O)C/C=C\CCCCCCCC(=O)NC(CCC(=O)O)C(=O)O (centres unmarked) [Compound 15] | – | – | – | Observation [2, 6]: translucent; Observation [2, 7]: translucent
CCCCCCC(O)C/C=C\CCCCCCCC(=O)NC(C(=O)O)C(C)CC (centres unmarked) [Compound 13] | – | – | – | Observation [2, 6]: translucent
CCCCC/C=C\C=C\CCCCCCCCC(=O)NC(CCC(=O)O)C(=O)O (centres unmarked) [Compound 11] | – | No binding | No binding | Observation [2, 6]: translucent/clear; Observation [2, 7]: translucent; FAAH IC50 [1]: No binding
conjugated linoleyl glycinate acid [Compound 1] | 2.6 µM | No binding | No binding | –
CCCCCC/C=C/C=C\CCCCCCCC(=O)NC(Cc1ccccc1)C(=O)O (centres unmarked) [Compound 7] | 11 µM | No binding | No binding | –
CCCCC/C=C\C=C\CCCCCCCCC(=O)NCCC(=O)O [Compound 4] | 2.8 µM | – | – | IC50 (human CB2 receptor): 26 µM; IC50 (human CB1 receptor): 22 µM
CCCCC/C=C\C=C\CCCCCCCCC(=O)NCC(Cc1c[nH]cn1)C(=O)O (centres unmarked) [Compound 9] | 13 µM | – | – | IC50 (human CB2 receptor): 38 µM
CCCCCCC(O)CCCCCCCCCCC(=O)NC(CC(=O)O)C(=O)O (centres unmarked) [Compound 16] | – | – | – | Observation ([2]; 45.16% Tween 60, 38.71% 12-HSA, 16.13% compound): translucent
